Converted amounts (≈) assume the structure as drawn.
Tests used:
Format in all cases: functional
Staphylococcus aureus [1] = experiment: Antibacterial activity against Staphylococcus aureus 29213 assessed as inhibition of bacterial growth incubated for 24 hrs by CLSI protocol based two fold serial dilution method
Escherichia coli [2] = experiment: Antibacterial activity against Escherichia coli assessed as inhibition of bacterial growth incubated for 24 hrs by CLSI protocol based two fold serial dilution method
Escherichia coli [3] = experiment: Antibacterial activity against Escherichia coli 25922 assessed as inhibition of bacterial growth incubated for 24 hrs by CLSI protocol based two fold serial dilution method
Acinetobacter baumannii = experiment: Antibacterial activity against Acinetobacter baumannii assessed as inhibition of bacterial growth incubated for 24 hrs by CLSI protocol based two fold serial dilution method
Klebsiella pneumoniae = experiment: Antibacterial activity against Klebsiella pneumonia assessed as inhibition of bacterial growth incubated for 24 hrs by CLSI protocol based two fold serial dilution method
Pseudomonas aeruginosa [4] = experiment: Antibacterial activity against Pseudomonas aeruginosa ATCC 27853 assessed as inhibition of bacterial growth incubated for 24 hrs by CLSI protocol based two fold serial dilution method
Staphylococcus aureus [5] = experiment: Antibacterial activity against Staphylococcus aureus assessed as inhibition of bacterial growth incubated for 24 hrs by CLSI protocol based two fold serial dilution method
Staphylococcus aureus [6] = experiment: Antibacterial activity against Staphylococcus aureus 25923 assessed as inhibition of bacterial growth incubated for 24 hrs by CLSI protocol based two fold serial dilution method
Pseudomonas aeruginosa [7] = experiment: Antibacterial activity against Pseudomonas aeruginosa assessed as inhibition of bacterial growth incubated for 24 hrs by CLSI protocol based two fold serial dilution method
Enterococcus faecalis = experiment: Antibacterial activity against Enterococcus faecalis assessed as inhibition of bacterial growth incubated for 24 hrs by CLSI protocol based two fold serial dilution method
Staphylococcus aureus [8] = experiment: Antibacterial activity against methicillin-resistant Staphylococcus aureus N315 assessed as inhibition of bacterial growth incubated for 24 hrs by CLSI protocol based two fold serial dilution method

SMILES | MIC (Staphylococcus aureus [1]) [µg/mL] | MIC (Escherichia coli [2]) [µg/mL] | MIC (Escherichia coli [3]) [µg/mL] | MIC (Acinetobacter baumannii) [µg/mL] | MIC (Klebsiella pneumoniae) [µg/mL] | MIC (Pseudomonas aeruginosa [4]) [µg/mL] | MIC (Staphylococcus aureus [5]) [µg/mL] | MIC (Staphylococcus aureus [6]) [µg/mL] | MIC (Pseudomonas aeruginosa [7]) [µg/mL] | MIC (Enterococcus faecalis) [µg/mL] | MIC (Staphylococcus aureus [8]) [µg/mL]
Fc1ccc(COc2cccc3c2c2ccccc2n3Cc2nnc(S)o2)c(F)c1 | 64 (≈ 151 µM) | 128 (≈ 302 µM) | 16 (≈ 37.8 µM) | 64 (≈ 151 µM) | 32 (≈ 75.6 µM) | 0.25 (≈ 0.59 µM) | 128 (≈ 302 µM) | 64 (≈ 151 µM) | 256 (≈ 605 µM) | 64 (≈ 151 µM) | 32 (≈ 75.6 µM)
Fc1cccc(COc2cccc3c2c2ccccc2n3Cc2nnc(S)o2)c1 | 128 (≈ 316 µM) | 128 (≈ 316 µM) | 16 (≈ 39.5 µM) | 64 (≈ 158 µM) | 32 (≈ 78.9 µM) | 0.5 (≈ 1.23 µM) | 128 (≈ 316 µM) | 32 (≈ 78.9 µM) | 256 (≈ 631 µM) | 32 (≈ 78.9 µM) | 64 (≈ 158 µM)
Sc1nnc(Cn2c3ccccc3c3c(OCCN4CCOCC4)cccc32)o1 | 32 (≈ 78 µM) | 64 (≈ 156 µM) | 128 (≈ 312 µM) | 128 (≈ 312 µM) | 64 (≈ 156 µM) | 64 (≈ 156 µM) | 128 (≈ 312 µM) | 128 (≈ 312 µM) | 256 (≈ 624 µM) | 64 (≈ 156 µM) | 128 (≈ 312 µM)
Fc1ccccc1COc1cccc2c1c1ccccc1n2Cc1nnc(S)o1 | 64 (≈ 158 µM) | 128 (≈ 316 µM) | 16 (≈ 39.5 µM) | 64 (≈ 158 µM) | 32 (≈ 78.9 µM) | 0.25 (≈ 0.617 µM) | 256 (≈ 631 µM) | 256 (≈ 631 µM) | 256 (≈ 631 µM) | 256 (≈ 631 µM) | 16 (≈ 39.5 µM)
CCCCCCOc1cccc2c1c1ccccc1n2Cc1nnc(S)o1 | 1 (≈ 2.62 µM) | 8 (≈ 21 µM) | 4 (≈ 10.5 µM) | 256 (≈ 671 µM) | 256 (≈ 671 µM) | 256 (≈ 671 µM) | 256 (≈ 671 µM) | 256 (≈ 671 µM) | 256 (≈ 671 µM) | 256 (≈ 671 µM) | 256 (≈ 671 µM)
CCn1c2ccccc2c2nnc(SCc3nnc(S)o3)nc21 | 256 (≈ 743 µM) | 256 (≈ 743 µM) | 256 (≈ 743 µM) | 256 (≈ 743 µM) | 256 (≈ 743 µM) | 256 (≈ 743 µM) | 256 (≈ 743 µM) | 256 (≈ 743 µM) | 256 (≈ 743 µM) | 256 (≈ 743 µM) | 256 (≈ 743 µM)

Source: ChEMBL document CHEMBL5154842, “Unique Carbazole-Oxadiazole Derivatives as New Potential Antibiotics for Combating Gram-Positive and -Negative Bacteria” (J Med Chem, 2022)
